The nature of series [1]: Cytotoxicity against human HS5 cells assessed as cell death at 10 uM after 72 hrs by propidium iodide/Triton-X100 dye based FACS analysis. A general note: In flow cytometry, cells or beads pass a laser one at a time.
The test system of series [2] is K562-IMA[r]. As to the kind of experiment: Induction of sensitization to imatinib-induced cytotoxicity in imatinib-resistant human K562-IMA[r] cells assessed as induction of cell death at 10 uM after 72 hrs in presence of 1 uM imatinib by propidium iodide/Triton-X100 dye based FACS analysis. The class given is functional.
The next series relates to COS-7. Description: Cytotoxicity against African green monkey COS7 cells assessed as effect on cell metabolic activity at 20 uM after 72 hrs by MTT assay. It is filed as ADME, cell-based. The conditions noted are these: chlorocebus aethiops, cos-7, 72 h.
Series [3] addresses T1, Peroxisome proliferator-activated receptor gamma (Homo sapiens) (UniProt P37231).
T1 sequence (whole entry): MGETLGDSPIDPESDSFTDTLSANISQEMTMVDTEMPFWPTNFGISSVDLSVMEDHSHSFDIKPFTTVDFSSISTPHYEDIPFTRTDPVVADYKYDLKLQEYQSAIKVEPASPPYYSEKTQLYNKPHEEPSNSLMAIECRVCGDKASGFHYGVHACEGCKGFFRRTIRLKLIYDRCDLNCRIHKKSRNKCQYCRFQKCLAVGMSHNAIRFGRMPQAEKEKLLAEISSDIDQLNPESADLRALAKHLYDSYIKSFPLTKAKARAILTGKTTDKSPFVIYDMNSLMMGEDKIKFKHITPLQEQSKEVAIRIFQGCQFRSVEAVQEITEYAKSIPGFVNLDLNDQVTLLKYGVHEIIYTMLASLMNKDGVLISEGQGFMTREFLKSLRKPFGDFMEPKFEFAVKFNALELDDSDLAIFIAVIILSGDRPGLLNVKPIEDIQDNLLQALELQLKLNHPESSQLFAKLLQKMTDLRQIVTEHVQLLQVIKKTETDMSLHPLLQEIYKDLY
Description: Transactivation of Gal4-fused human PPARgamma transfected in COS7 cells co-transfected with pGAL5-TK-pGL3 and pRennilla-CMV assessed as maximum intrinsic activation at 10 uM incubated for 39 hrs by dual luciferase reporter assay relative to pioglitazone. It is filed as cell-based.

For series [4], the system named is K562-IMA[r]. As to the kind of experiment: Cytotoxicity against imatinib-resistant human K562-IMA[r] cells assessed as cell death at 10 uM after 72 hrs by propidium iodide/Triton-X100 dye based FACS analysis.
The subject of the next series is K562. As to the kind of experiment: Cytotoxicity against human K562 cells assessed as cell death at 10 uM after 72 hrs by propidium iodide/Triton-X100 dye based FACS analysis. The conditions noted are these: k562, 72 h.
A short description of series [5]: Solubility of compound in DMSO at 10 uM by microscopic analysis. The class given is physicochemical.
Series [6] has as its target T1, Peroxisome proliferator-activated receptor gamma (Homo sapiens). Description: Transactivation of Gal4-fused human PPARgamma transfected in COS7 cells co-transfected with pGAL5-TK-pGL3 and pRennilla-CMV assessed as maximum intrinsic activation at 20 uM incubated for 39 hrs by dual luciferase reporter assay. The class given is cell-based. On the technique in general: A reporter such as luciferase makes a cellular process visible.

A short description of series [7]: Solubility of compound in water at >20 uM. It is filed as physicochemical. The conditions noted are these: buffer.
The target of series [8] is T2, Peroxisome proliferator-activated receptor gamma (Homo sapiens, UniProt P37231).
T2 sequence (P37231 whole entry): T1 sequence (whole entry)
As to the kind of experiment: Transactivation of Gal4-fused human PPARgamma transfected in COS7 cells co-transfected with pGAL5-TK-pGL3 and pRennilla-CMV incubated for 39 hrs by dual luciferase reporter assay. It is filed as cell-based.

Series [9] has as its system K562-IMA[r]. As to the kind of experiment: Induction of sensitization to imatinib-induced cytotoxicity in imatinib-resistant human K562-IMA[r] cells assessed as induction of cell death at 10 uM after 72 hrs in presence of 1 uM imatinib by propidium iodide/Triton-X100 dye based FACS analysis (reference value: 15%). The class given is functional.
Series [10] relates to K562-IMA[r]. Description: Induction of sensitization to imatinib induced cytotoxicity in imatinib-resistant human K562-IMA[r] cells assessed as cell death up to 2.5 uM measured after 72 hrs in presence of 1 uM imatinib by propidium iodide/Triton-X100 dye based FACS analysis. The class given is functional.
The test system of series [11] is K562-IMA[r]. Description: Induction of sensitization to imatinib-induced cytotoxicity in imatinib-resistant human K562-IMA[r] cells assessed as gain in cell death rate at 5 uM measured after 72 hrs in presence of 1 uM imatinib by propidium iodide/Triton-X100 dye based FACS analysis relative to imatinib-treated control. The class given is functional.
Series [12] relates to K562-IMA[r]. As to the kind of experiment: Induction of sensitization to imatinib-induced cytotoxicity in imatinib-resistant human K562-IMA[r] cells assessed as induction of cell death measured after 72 hrs in presence of 1 uM imatinib by propidium iodide/Triton-X100 dye based FACS analysis. It is filed as functional.
Series [13] concerns K562-IMA[r]. As to the kind of experiment: Cytotoxicity against imatinib-resistant human K562-IMA[r] cells assessed as induction of cell death at 10 uM after 72 hrs by propidium iodide/Triton-X100 dye based FACS analysis relative to control.

Results on 15 compounds are retold here after ChEMBL document CHEMBL4373734, “Overcoming imatinib resistance in chronic myelogenous leukemia cells using non-cytotoxic cell death modulators” (Eur J Med Chem, 2020).

SMILES strings stand for the structures. Active and inactive are the calls of the source. The rule behind the calls is not given here.

With `CCCc1nc2c(N)cccc2n1Cc1ccc(-c2ccccc2C(=O)O)cc1`, the Activity entry (in series [1]; in the series with COS-7; in the series on K562-IMA[r] [4]; with K562) was “Non-Toxic” each time. For the same compound, the result in the series on K562-IMA[r] [2] was Active. The Intrinsic activity in series [3] stood at 15.7%. For the same compound, the solubility result in series [5] is on record as “Soluble”.

As for `CCCc1nc2c(O)cccc2n1Cc1ccc(-c2ccccc2C(N)=O)cc1`, the Activity result (in series [1]; in the series with COS-7; in the series with K562-IMA[r] [4]; in the series on K562) was “Non-Toxic” in each case. For the same compound, in the series with K562-IMA[r] [2], the outcome was Active. Further, the Intrinsic activity result in [6] is “inactive”. Moreover, the Intrinsic activity in series [3] worked out at 20.5%. In addition, the results for the solubility entry in series [7] and in [5] were “Insoluble” and “Soluble”, respectively.

In the case of `CCCc1nc2c(C(F)(F)F)cccc2n1Cc1ccc(-c2ccccc2C(=O)O)cc1`, the Activity result (in series [1]; in the series on COS-7; in the series with K562-IMA[r] [4]; in the series on K562) was “Non-Toxic” in each case. In series [8], this compound displayed an EC50 of 12.1 µM. Further, in the series on K562-IMA[r] [2], the result was Active. Further, the Intrinsic activity in series [3] is 29.5%. Further, the solubility entry in series [5] is “Soluble”.

Turning to `CCCc1nc2c(OC)cccc2n1Cc1ccc(-c2ccccc2C(=O)O)cc1`, the Activity entry (in series [1]; with COS-7; with K562-IMA[r] [4]; in the series on K562) was “Non-Toxic” in each case. In the series on K562-IMA[r] [2], the result was Active. The Intrinsic activity in [3] is 17.9%. In addition, the solubility result in series [5] was “Soluble”.

With `CCCc1nc2c(C)cc(-c3nc4ccccc4n3C)cc2n1Cc1ccc(-c2ccccc2C(=O)O)cc1` [TELMISARTAN], it took 4.28 µM to reach a half-maximal effect in series [8] (EC50). Further, the outcome with K562-IMA[r] [2] was Active. Also, the Intrinsic activity in [6] was determined as 78%; in series [3], 59.1%.

Consider `CCCc1nc2c(C(F)(F)F)cccc2n1Cc1ccc(-c2ccccc2C(N)=O)cc1`, for which the Activity entry in series [1] is “Non-Toxic”; in the series with K562-IMA[r] [9], 62 - 78%; with COS-7 it was “Non-Toxic”; in the series on K562-IMA[r] [11], 7.1%; in the series with K562-IMA[r] [12] it was “Dose-dependent effect”; with K562-IMA[r] [13], below 20%. Also, the Activity result with K562 is listed as “Non-Toxic”. For the same compound, the result in the series with K562-IMA[r] [10] was inactive. The Intrinsic activity result in [6] was “inactive”. In series [3], the Intrinsic activity was 19.5%. For the same compound, the results for the solubility entry in [7] and in series [5] were “Insoluble” and “Soluble”, respectively.

Take `CCCc1nc2c(C)cccc2n1Cc1ccc(-c2ccccc2C(N)=O)cc1`: the Activity result was “Non-Toxic” in series [1]; 62 - 78% in the series on K562-IMA[r] [9]; “Non-Toxic” in the series on COS-7; 11.2% with K562-IMA[r] [11]; “Dose-dependent effect” in the series with K562-IMA[r] [12]; below 20% in the series with K562-IMA[r] [13]. Further, in the series with K562, the Activity result is given as “Non-Toxic”. The outcome with K562-IMA[r] [10] was inactive. In addition, the Intrinsic activity entry in series [6] is “inactive”. In addition, the Intrinsic activity in [3] is 19.6%. For the same compound, the values for the solubility result in [7] and in series [5] were “Insoluble” and “Soluble”, respectively.

With `CCCc1nc2c(F)cccc2n1Cc1ccc(-c2ccccc2C(N)=O)cc1`, the Activity entry in series [1] was “Non-Toxic”; in the series with K562-IMA[r] [9], 62 - 78%; with COS-7, “Non-Toxic”; in the series with K562-IMA[r] [11], 8.1%; in the series on K562-IMA[r] [12], “Dose-dependent effect”; in the series with K562-IMA[r] [13], below 20%. The Activity result with K562 is on record as “Non-Toxic”. In the series on K562-IMA[r] [10], the result was inactive. Moreover, in [6], the Intrinsic activity result is “inactive”. The Intrinsic activity in series [3] was found to be 33.3%. For the same compound, the figures for the solubility result in series [7] and in series [5] were “Insoluble” and “Soluble”, respectively.

As for `CCCc1nc2c(OC)cccc2n1Cc1ccc(-c2ccccc2C(N)=O)cc1`, the Activity result (in series [1]; with COS-7; with K562-IMA[r] [4]; in the series on K562) was “Non-Toxic” in each case. In addition, the result in the series with K562-IMA[r] [2] was Active. In addition, the Intrinsic activity entry in [6] is “inactive”. Besides, the Intrinsic activity in [3] turned out to be 13.3%. Besides, the solubility result in series [7] is recorded as “Insoluble”; in [5] it was “Soluble”.

With `CCCc1nc2c([N+](=O)[O-])cccc2n1Cc1ccc(-c2ccccc2C(=O)O)cc1`, the Activity result (in series [1]; in the series on COS-7; in the series on K562-IMA[r] [4]; in the series on K562) was “Non-Toxic” in each case. The result in the series on K562-IMA[r] [2] was Active. Moreover, the Intrinsic activity in series [3] was 0.42%. Moreover, in series [5], the solubility result is listed as “Soluble”.

On to `CCCc1nc2c(O)cccc2n1Cc1ccc(-c2ccccc2C(=O)O)cc1`, for which the Activity result (in [1]; in the series on COS-7; with K562-IMA[r] [4]; with K562) was “Non-Toxic” each time. Also, the outcome with K562-IMA[r] [2] was Active. In series [3], the Intrinsic activity was determined as 14.4%. In addition, the solubility entry in series [5] is “Soluble”.

For `CCCc1nc2c(N)cccc2n1Cc1ccc(-c2ccccc2C(N)=O)cc1`, the Activity result (in series [1]; in the series with COS-7; in the series on K562-IMA[r] [4]; in the series on K562) was “Non-Toxic” throughout. The result in the series with K562-IMA[r] [2] was Active. The Intrinsic activity entry in [6] is “inactive”. Further, the Intrinsic activity in series [3] was determined as 25.1%. The solubility result in series [7] is reported as “Insoluble”; in [5], “Soluble”.

Consider `CCCc1nc2c(C)cccc2n1Cc1ccc(-c2ccccc2C(=O)O)cc1`, for which the Activity result (in [1]; in the series with COS-7; in the series on K562-IMA[r] [4]; in the series with K562) was “Non-Toxic” in each case. Besides, the EC50 in series [8] is 11.1 µM. Moreover, the outcome with K562-IMA[r] [2] was Active. Moreover, the Intrinsic activity in series [3] came out at 54.3%. Besides, in series [5], the solubility result is “Soluble”.

Regarding `CCCc1nc2c(Cl)cccc2n1Cc1ccc(-c2ccccc2C(N)=O)cc1`, the Activity result in series [1] is “Non-Toxic”; with K562-IMA[r] [9], 62 - 78%; in the series with COS-7, “Non-Toxic”; in the series with K562-IMA[r] [11], 15.3%; with K562-IMA[r] [12] it was “Dose-dependent effect”; with K562-IMA[r] [13] it was below 20%. The Activity result with K562 is reported as “Non-Toxic”. For the same compound, in the series with K562-IMA[r] [10], the result was inactive. Besides, in series [6], the Intrinsic activity entry was “inactive”. Further, the Intrinsic activity in series [3] was found to be 21.1%. Further, the figures for the solubility result in [7] and in series [5] were “Insoluble” and “Soluble”, respectively.

For `CCCc1nc2c([N+](=O)[O-])cccc2n1Cc1ccc(-c2ccccc2C(N)=O)cc1`, the Activity result (in series [1]; with COS-7; in the series with K562-IMA[r] [4]; in the series on K562) was “Non-Toxic” in each case. Moreover, the result in the series on K562-IMA[r] [2] was Active. In addition, the Intrinsic activity entry in [6] was “inactive”. The Intrinsic activity in series [3] came out at 7.15%. The solubility result was “Insoluble” in [7] and “Soluble” in series [5].

By EC50 is commonly meant the concentration at which the effect is half-maximal.
